Results published in patent US10071103B2, “Treatments for resistant acne” (VYOME BIOSCIENCES PVT. LTD., priority 2014, dated 2018).
Converted amounts (≈) assume the structure as drawn.

Experiments:
P. acnes MTCC 1951 [1] = assay: MIC by micro broth dilution (Alamar blue), clindamycin-susceptible P. acnes; assay type: cell-based, Propionibacterium acnes; conditions: Cutibacterium acnes, MTCC1951; Table 7; against P. acnes; read-out: MIC
Description: The plates were incubated at 37° C. for 48 h under anaerobic condition for P. acnes and 37° C. for 24 h for S. aureus The plates were read under Bio-Rad plate reader at 595 nm for optical density to generate the dose-response curves. The MIC of the test compound was recorded by addition of Alamar blue dye.
P. acnes (MTCC 3297, MTCC 1951& CCARM 9010) are cultured in Brain Heart Infusion (BHI) Broth at 37° C. for 48-72 h under anaerobic condition. The test compounds/formulations are initially diluted with suitable solvent and further diluted with BHI broth to get the required concentrations. Samples (100 μl) of different concentrations (prepared by serial dilution) are added to 96-well plate. To the wells, 100 μl of P. acnes BHI broth culture is added [culture turbidity adjusted against 0.5 McFarland standard (approx 1.5×10^8), and further diluted 100-fold with sterile BHI broth]. In addition Growth Control and Sterility Control are created using 100 μl each of P. acnes BHI broth culture and plain BHI broth, respectively.
Plates are incubated at 37° C. for 48-72 hrs under anaerobic condition. The plate is read under Bio-Rad plate reader @ 595 nm for optical density to generate the dose-response curves. The MIC of the test compound is recorded by addition of Alamar blue dye.
BHI broth and BHI agar media were prepared as per the manufacturer's instruction and autoclaved at 121° C. for 15 minutes. […] For MIC determination testing, gels are dissolved in the solvent and further diluted with BHI broth. Then, 96 wells plate are filled with 100 μl of BHI broth containing drug with different concentration to get the final concentrations of 0.06, 0.13, 0.25, 0.5, 1 and 2 μg/ml in different lanes (lane 1 to lane 6). Remaining lanes of the 96 well plate are used as growth control and sterility control. Finally, P. acnes culture suspension (approx 1.5×10^6) is added in all the wells except sterility control wells and plate is incubated at 37° C. for 48-72 h under anaerobic condition. At the end of 72 h, Alamar blue solution (20 μl) is added into the wells and incubated at 37° C. for 2 h. Plate is visualized for bacterial inhibitions and MIC values of the tested samples are determined. […]

P. acnes MTCC 1951 [2] = assay type: cell-based, Propionibacterium acnes
Description: 3 to 4 Petri plates containing 48 h P. acnes culture was suspended in sterile Phosphate buffer saline, PBS (pH 7.2) and turbidity was adjusted to optical density of 1 at 600 nm (10^9 cells/ml). 50 ml of this culture suspension was centrifuged at 4000 rpm for 40 min. The supernatant was discarded and pellet resuspended in 250 μl of sterile PBS. 50 μl of these cell suspensions (10^10 cells) was spread over the plates containing various concentrations of antibiotics (around MIC range). Plates were incubated at 37° C. for 48 h and the lowest concentration of the drug that allowed no growth was taken as its MPC.

IL-6 = assay: P. acnes-induced IL-6 release in THP-1 cells (ELISA); assay type: cell-based; conditions: Example 61; besifloxacin 10, 30 μg/ml; adapalene 0.04, 0.4 μg/ml
Description: Method: Preparation of Stimulant for Inflammation: P. acnes culture suspension was prepared in PBS and the cell number in the suspension was adjusted to approximately 5×10^8 CFU/ml by measuring the cell density using a Densimat. The bacterial suspension was then heat killed at 80° C. for 30 min and stored at −80° C. until further use.
Cells were seeded in a 96-well format (2×10^5 THP-1 cells per well) in media containing 10% FBS. The cells were stimulated to induce inflammatory cytokines using 3 McFarland equivalent heat-killed P. acnes. Cells in control wells were treated with PBS. One hour after induction with P. acnes, test agents were added to the induced cells at appropriate concentrations to be tested (compound 91 at 25 μg/ml). The plates were incubated at 37° C. for 24 hours. After 24 h, the plates were centrifuged to pellet the cells and the supernatants were collected. The cell culture supernatants thus obtained were analyzed for levels of cytokines (IL-1α, IL-1β, IL-6 and IL-8) by ELISA using R&D Systems kits for individual cytokines following the manufacturer's instructions.
Preparation of stimulant for inflammation: P. acnes culture suspension was prepared in PBS and the cell number in the suspension was adjusted to approximately 5×10^8 CFU/ml by measuring the cell density using a Densimat. The bacterial suspension was then heat killed at 80° C. for 30 min and stored at −80° C. until further use.
Cells were seeded in a 96-well format (2×10^5 THP-1 cells per well) in media containing 10% FBS. The cells were stimulated to induce inflammatory cytokines using 3 McFarland equivalent heat-killed P. acnes. Cells in control wells were treated with PBS. One hour after induction with P. acnes, test agents were added to the induced cells at appropriate concentrations (Besifloxacin at 10 and 30 μg/ml; Adapalene at 0.04 and 0.4 μg/ml). The plates were incubated at 37° C. for 24 hours. After 24 h, the plates were centrifuged to pellet the cells and the supernatants were collected. The cell culture supernatants thus obtained were analyzed for cytokine levels (IL-6 and IL-8) by ELISA using R&D Systems kits for individual cytokines following the manufacturer's instructions.

[3] = tested on: P. acnes clinical isolates; assay: MIC of P. acnes isolated from acne patients (clinical isolates);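 further: anaerobic 96-well plate assay at 37 °C over 72 h, with Alamar blue dye as read-out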;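 on MIC: MIC in µg/mL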
Description: P. acnes were cultured in Brain Heart Infusion Agar (BHIA) at 37° C. for 48 hours under anaerobic condition. […] For bacterial inoculum, P. acnes culture turbidity was adjusted to 0.5 McFarland standard (approximately 1.5×10^8) and further diluted (100 times with sterile BHI broth). Diluted P. acnes suspension (100 μl) was added to each well except sterility control wells (column 12 of 96 well plate). Inoculated plates were incubated at 37° C. for 72 hours under anaerobic condition. After incubation, MIC was determined by adding Alamar blue dye.

N[C@@H]1CCCCN(c2c(F)cc3c(=O)c(C(=O)O)cn(C4CC4)c3c2Cl)C1 [Besifloxacin]
MIC (P. acnes MTCC 1951 [1]): 0.5 µg/mL (≈ 1.27 µM) | MPC (P. acnes MTCC 1951 [2]; P. acnes, 10^10 cells inoculum): 2 µg/mL | MPC/MIC (P. acnes MTCC 1951 [2]; ratio against P. acnes): 4 | Effect on P. acnes-induced IL-6 levels (in words) (IL-6): concentration-dependent inhibitory effect | Susceptibility of P. acnes isolated from volunteers V3 and V21 (in words) [3]: susceptible | Susceptibility of clindamycin-nonresponder clinical isolates (in words) [3]: susceptible | Susceptibility of clinical isolates susceptible to clindamycin and erythromycin (in words) [3]: susceptible | MIC ([3]; Cutibacterium acnes): 0.25 µg/mL | MIC ([3]; Cutibacterium acnes, P. acnes strain V5-2, clinical isolate susceptible to clindamycin and erythromycin): 0.5 µg/mL | MIC ([3]; Cutibacterium acnes, P. acnes strain V5-5, clinical isolate susceptible to clindamycin and erythromycin): 0.5 µg/mL | MIC ([3]; Cutibacterium acnes, P. acnes strain V5-7, clinical isolate susceptible to clindamycin and erythromycin): 0.5 µg/mL | MIC ([3]; Cutibacterium acnes, P. acnes strain V6-5, clinical isolate susceptible to clindamycin and erythromycin): 0.5 µg/mL | MIC ([3]; Cutibacterium acnes, P. acnes strain V6-6, clinical isolate susceptible to clindamycin and erythromycin): 0.5 µg/mL | MIC ([3]; Cutibacterium acnes, P. acnes strain V6-7, clinical isolate susceptible to clindamycin and erythromycin): 0.5 µg/mL | MIC ([3]; Cutibacterium acnes, P. acnes strain V7-3, clinical isolate susceptible to clindamycin and erythromycin): 0.5 µg/mL | MIC ([3]; Cutibacterium acnes, P. acnes strain V7-4, clinical isolate susceptible to clindamycin and erythromycin): 0.5 µg/mL | MIC ([3]; Cutibacterium acnes, P. acnes strain V7-14, clinical isolate susceptible to clindamycin and erythromycin): 0.5 µg/mL | MIC ([3]; Cutibacterium acnes, P. acnes strain V9-6E, clinical isolate susceptible to clindamycin and erythromycin): 0.5 µg/mL | MIC ([3]; Cutibacterium acnes, P. acnes strain V13-3E, clinical isolate susceptible to clindamycin and erythromycin): 0.5 µg/mL | MIC ([3]; Cutibacterium acnes, P. acnes strain V14-2E, clinical isolate susceptible to clindamycin and erythromycin): 0.5 µg/mL | MIC ([3]; Cutibacterium acnes, P. acnes strain V17-3E, clinical isolate susceptible to clindamycin and erythromycin): 0.5 µg/mL | MIC ([3]; P. acnes strain V2-9, clinical isolate susceptible to clindamycin and erythromycin): 0.25 µg/mL | MIC ([3]; P. acnes strain V3-9, clinical isolate susceptible to clindamycin and erythromycin): 0.25 µg/mL | MIC ([3]; P. acnes strain V3-10, clinical isolate susceptible to clindamycin and erythromycin): 0.25 µg/mL | MIC ([3]; P. acnes strain V4-6, clinical isolate susceptible to clindamycin and erythromycin): 0.25 µg/mL | MIC ([3]; P. acnes strain V4-8, clinical isolate susceptible to clindamycin and erythromycin): 0.25 µg/mL | MIC ([3]; P. acnes strain V4-13, clinical isolate susceptible to clindamycin and erythromycin): 0.25 µg/mL | MIC ([3]; P. acnes strain V12-2E, clinical isolate susceptible to clindamycin and erythromycin): 0.25 µg/mL | MIC ([3]; P. acnes strain V15B-1E, clinical isolate susceptible to clindamycin and erythromycin): 0.25 µg/mL | MIC ([3]; P. acnes strain V18-4E, clinical isolate susceptible to clindamycin and erythromycin): 0.25 µg/mL | MIC ([3]; P. acnes strain V19-2E, clinical isolate susceptible to clindamycin and erythromycin): 0.25 µg/mL | MIC ([3]; P. acnes strain V20-5E, clinical isolate susceptible to clindamycin and erythromycin): 0.25 µg/mL
